What was measured:
[1] = system: esophageal stricture after entire circumference (100%) ESD; experiment: esophageal entire circumference (100%) ESD model, degree of esophageal stricture by macroscopical findings and histopathological analysis (Masson staining); format: in vivo
Text: For the production of an esophageal entire circumference (100%) ESD model, miniature pigs for experiments were used.
As miniature pigs, three groups of a physiological saline administered group, a steroid preparation (Kenacort) administered group, and a CHST15 siRNA (manufactured by Hokkaido System Science Co., Ltd., lot number: 40481638) administered group were used (n=1/group). The miniature pig in each group was orally inserted with an upper gastrointestinal endoscope under general anesthesia and respiratory control, and an entire circumference (100%) ESD was performed using a dual knife with a total length of […] between 15 cm and 25 cm from the portal dentition. Into an entire circumference artificial ulcer immediately after preforming ESD was injected 2 mL in total of an administration solution (physiological saline, steroid preparation, CHST15 siRNA, 250 nM solution) using an endoscopic injection needle at a total of 20 locations so as to evenly cover the entire circumference from the ulcer bottom.
If no treatment is performed after ESD, esophageal stricture will develop within 2 weeks and food will not pass through, and the miniature pig will die within 4 weeks thereafter, so that the observation period after a single time administration was set to 2 weeks, the entire group was slaughtered after 2 weeks (Day 14), and the degree of esophageal stricture was investigated by macroscopical findings, and histopathological analysis (Masson staining).

[2] = system: stricture esophageal tissue after ESD; settings: half circumferential (50%) ESD; Document 14; cited from earlier work
[3] = single local injection immediately after ESD, Day 14, n=1/group

For “CHST15 siRNA: siRNA having a structure in which the RNAs described in SEQ ID NOs:1 and 2 are hybridized; suppresses expression of the CHST15 gene (chain 1 GGAGCAGAGCAAGAUGAAUACAAUCAG; chain 2 GAUUGUAUUCAUCUUGCUCUGCUCCAU; chemistry not given here)”, the “suppressing effect of esophageal stricture after entire circumference ESD (overall)” value ([1]; consideration / summary of Example 1) was “remarkable stricture suppressing effect”, the “damage of the muscular layer (pathological findings, Masson staining)” value ([1]; pig, in vivo) was “no damage of the muscular layer was observed” and the “artificial ulcer repair / regenerated epithelium (pathological findings, Masson staining)” value [1, 3] was “almost covered with regenerated epithelium”. For the same substance, the “edible state (macroscopical findings)” value [1, 3] was “edible”, the “esophageal stricture / obstruction (macroscopical findings)” value [1, 3] was “no stricture or obstruction” and the “fibrosis deeper than the ulcer floor (pathological findings, Masson staining)” value [1, 3] was “no pathological fibrosis”. The “shortening of esophageal length (macroscopical findings)” value ([1]; single local injection into artificial ulcer immediately after ESD, 2 mL in total at 20 locations (CHST15 siRNA 250 nM solution), Day 14, n=1/group) was “substantially not observed” and the “fibrosis when expression of CHST15 mRNA is suppressed” value [2] was “fibrosis is suppressed”.
